Experiments:
[1] = target: T1, RAS G12V (Homo sapiens, UniProt P01116, G12V); assay: Test Example 1: RAS G12V degradation activity by Cell ELISA in PA-TU-8902; type: cell-based; conditions: for DC50: 50% degradation concentration of RAS G12V, PA-TU-8902 cells, 24 hours, Cell ELISA, corrected with β-actin; for Dmax: PaTu 8902, degradation rate at the most active concentration, DMSO = 0%, Example No. 7 at 3 μM = 100%, PA-TU-8902, 24 hours
T1 construct: host or cells: PA-TU-8902 human pancreatic cancer cells
Description: Test Example 1: Evaluation of RAS G12V Degradation Activity on Human KRAS G12V Mutant-Positive Pancreatic Cancer Line PA-TU-8902
The RAS G12V degradation activity of test compounds was evaluated by measuring the expression levels of RAS G12V by Cell ELISA.
PA-TU-8902 cells (DSMZ, ACC 179) were seeded at 36 μL per well on 384-well plates (from Greiner bio-one) to give 1.5×10^4 cells per well. As for the cell culture conditions, DMEM medium (from Sigma-Aldrich) containing 10% fetal bovine serum (from Cytiva) was used in the presence of 5% CO2 at 37° C.
The next day, the test compounds (10 points having final concentrations in the range of 3 μM to 0.1 nM), the compound of Example No. 7 having a final concentration of 3 μM as a positive control and dimethyl sulfoxide (DMSO), which was the solvent for the test compounds, as a negative control were diluted 100-fold with a fresh medium and were added at 4 μL per well. The cells were cultured for 24 hours.
The next day, the culture supernatant was removed, and 4% paraformaldehyde phosphate buffer (from FUJIFILM Wako Pure Chemical Corporation) was added at 20 μL per well. The plates were allowed to stand for 30 minutes at room temperature to thus immobilize the cells. Then, the supernatant was removed, and 0.1% Triton X-100 (from Amersham Biosciences)-containing Phosphate buffered saline (PBS) was added at 20 μL per well. After allowing to stand at room temperature for 10 minutes, the supernatant was removed. PBS was added at 25 μL per well, and the supernatant was removed to thus wash each well. The washing was performed twice in total. Subsequent washing operations were performed in the same manner. Next, the supernatant was removed, and 0.5% sodium dodecyl sulfate (SDS; from ThermoFisher Scientific)-containing PBS was added at 20 μL per well. After allowing to stand at room temperature for 10 minutes, the supernatant was removed by centrifugation of the plates. After washing with PBS, the supernatant was removed by centrifugation, and blocking solution (PVDF Blocking Reagent for Can Get Signal [from TOYOBO Co., Ltd.]) was added at 20 μL per well. After allowing to stand for 30 minutes at room temperature, the supernatant was removed by centrifugation and a solution obtained by diluting, as primary antibodies, anti-Ras (G12V Mutant Specific) antibody (Ras (G12V Mutant Specific) (D2H12) Rabbit mAb; from Cell Signaling Technology; 500-fold diluted) and […] (Anti-beta Actin antibody; from Abcam; 5,000-fold diluted) with Can Get Signal Solution 2 (from TOYOBO Co., Ltd.) was added at 15 μL per well. The plates were allowed to stand overnight at 4° C.
The next day, the supernatant was removed by centrifugation and washed with PBS. The supernatant was removed by centrifugation, a solution obtained by diluting, as secondary antibodies, anti-rabbit IgG antibody (IRDye 800CW Goat anti-Rabbit IgG; from LI-COR Biosciences) and anti-mouse IgG antibody (IRDye 680RD Donkey anti-Mouse IgG; from LI-COR Biosciences) 1,000-fold with Can Get Signal Solution 2 was added at 15 μL per well. After allowing to stand at room temperature for 1 hour, the supernatant was removed by centrifugation and washed with PBS. After removing the supernatant, the plates were dried with air at room temperature for 2 hours or more, and the 700 nm and 800 nm fluorescent signals were measured with Aerius (from LI-COR Biosciences).
The degradation rate of RAS G12V was calculated with the RAS G12V signaling value at the time of addition of DMSO taken as 0%, which was corrected with the signaling value of β-actin, and with the RAS G12V signaling value at the time of addition of the compound of Example No. 7 at a final concentration of 3 μM taken as 100%. […]

[2] = tested on: human KRAS G12V mutant-positive pancreatic cancer line PA-TU-8902; assay: Test Example 3: non-anchorage-dependent cell growth inhibition, spheroid 3D culture; type: cell-based; conditions: PaTu 8902, 144 h, PA-TU-8902 spheroid 3D culture, 6 days; for IC50: CellTiter Glo 2.0
Description: Test Example 3: Evaluation of Non-Anchorage-Dependent Cell Growth Inhibitory Effect on Human KRAS G12V Mutant-Positive Pancreatic Cancer Line PA-TU-8902
The non-anchorage-dependent cell growth inhibitory effect of test compounds was evaluated by spheroid 3D cell culture.
PA-TU-8902 cells were seeded on low-cell-adhesive round bottom 384-well plates (PrimeSurface: from Sumitomo Bakelite) at 36 µL/well to give 5×10^2 cells per well. The cell culture was performed under the same conditions as in Test Example 1.
The next day, the test compounds (8 to 10 points having final concentrations in the range of 3 μM to 0.1 nM) and DMSO, which was the solvent for the test compounds, as a negative control were diluted 100-fold with a fresh medium and were added at 4 μL per well. After culturing in the presence of 5% CO2 at 37° C. for 6 days, CellTiter Glo 2.0 (from Promega) was added at 20 μL per well. After stirring with a plate mixer (from FINEPCR) at normal temperature for 1 hour, the luminescent signals were measured with ARVO X3 (from PerkinElmer).
With the signaling value in treatment with DMSO taken as 0% inhibition and with the signaling value in the medium alone without cells taken as 100% inhibition, the 50% inhibitory concentration values (IC50) were calculated by Sigmoid-Emax nonlinear regression analysis. The inhibition rate at 30 nM was calculated for Example No. 17.

T1 sequence (P01116 1-188 isoform P01116-2 G12V): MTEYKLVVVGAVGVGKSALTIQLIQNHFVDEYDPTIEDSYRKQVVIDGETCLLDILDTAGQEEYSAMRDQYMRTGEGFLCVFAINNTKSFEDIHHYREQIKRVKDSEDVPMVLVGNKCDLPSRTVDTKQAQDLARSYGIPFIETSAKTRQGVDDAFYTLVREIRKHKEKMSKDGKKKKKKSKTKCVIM

| Structure (SMILES) | DC50 [1] [nM] | Dmax [1] [%] | IC50 [2] [nM] | inhibition at 0.03 µM ([2]; 30 nM, CellTiter Glo 2.0, read-out: inhibition rate at 30 nM) [%] |
| --- | --- | --- | --- | --- |
| CO[C@@H](C)COc1nc(N2CC(C#N)C2)c2cc(C3CC3)c(-c3c(C)c(F)cc4[nH]ncc34)c(OCc3ccc(C(=O)N4CCN(Cc5ccc6c(c5)n(C)c(=O)n6C5CCC(=O)NC5=O)C[C@@H]4C)cc3)c2n1 (stereo partly drawn) [Example 2, 1-{(7 M)-6-cyclopropyl-8-({4-[(2S)-4-([1-(2,6-dioxopiperidin-3-yl)-3-methyl-2-oxo-2,3-dihydro-1H-benzimidazol-5-yl]methyl)-2-methylpiperazine-1-carbonyl]phenyl)methoxy)-7-(6-fluoro-5-methyl-1H-indazol-4-yl)-2-[(2S)-2-methoxypropoxy]quinazolin-4-yl)azetidine-3-carbonitrile] | 4 | 89 | 21 |  |
| CO[C@@H](C)COc1nc(NCc2cccnc2)c2cc(C3CC3)c(-c3c(C)c(F)cc4[nH]ncc34)c(OCc3ccc(C(=O)N4CCN(Cc5ccc6c(c5)n(C)c(=O)n6C5CCC(=O)NC5=O)C[C@@H]4C)cc3)c2n1 (stereo partly drawn) [Example 4] | 7 | 83 | 74 |  |

Continued by falling DC50 [1], values first:

| DC50 [1] [nM] | Dmax [1] [%] | IC50 [2] [nM] | Structure (SMILES) | inhibition at 0.03 µM ([2]; 30 nM, CellTiter Glo 2.0, read-out: inhibition rate at 30 nM) [%] |
| --- | --- | --- | --- | --- |
| 29 | 74 | 67 | CO[C@@H](C)COc1nc(N2CC[C@@H](N)[C@@H](F)C2)c2cc(C3CC3)c(-c3c(C)c(F)cc4[nH]ncc34)c(OCc3ccc(C(=O)N4CCN(Cc5ccc6c(c5)n(C)c(=O)n6C5CCC(=O)NC5=O)C[C@@H]4C)cc3)c2n1 (stereo partly drawn) [Example 3, 3-(5-{[(3S)-4-{4-[({4-[(3S,4R)-4-amino-3-fluoropiperidin-1-yl]-6-cyclopropyl-7-(6-fluoro-5-methyl-1H-indazol-4-yl)-2-[(2S)-2-methoxypropoxy]quinazolin-8-yl)oxy)methyl]benzoyl}-3-methylpiperazin-1-yl]methyl}-3-methyl-2-oxo-2,3-dihydro-1H-benzimidazol-1-yl)piperidine-2,6-dione] |  |
| 9 | 70 |  | CO[C@@H](C)COc1cc(OC2CN(C(=O)NCCN(C)C)C2)c2cc(C3CC3)c(-c3c(C)c(F)cc4[nH]ncc34)c(OCc3ccc(C(=O)N4CCN(Cc5ccc6c(c5)n(C)c(=O)n6C5CCC(=O)NC5=O)C[C@@H]4C)cc3)c2n1 (stereo partly drawn) [Example 17] | 50 |
| 5 | 81 | 48 | Cc1c(F)cc2[nH]ncc2c1-c1c(C2CC2)cc2c(NC3CN(c4ncccn4)C3)nc(OCC(C)(C)CN(C)C)nc2c1OCc1ccc(C(=O)N2CCN(Cc3ccc4c(c3)n(C)c(=O)n4C3CCC(=O)NC3=O)C[C@@H]2C)cc1 (stereo partly drawn) [Example 8] |  |
